From PubChem BioAssay AID198 (DTP/NCI, 2004)
“And” between values parts separate entries of the source, which are not always exact repeats. Identical values can stand only once. Toxic doses and inconclusive results are not listed. *1 amine or outer side, *2 acyl side, *3 side chain or, on linkers, in order; H or OH if unused. Where a SMILES comes first, the peptide text is derived from it. Bridges are numbered along the chain shown (N, C = ends). Roman numbers before positions name the chains, in order. [ ]: non-standard residue; d: D form. Actinocin(9to1) = Cc1c2oc3c(C)ccc(C(=O)[*:1])c3nc-2c(C(=O)[*:2])c(N)c1=O; aThr = C[C@H](O)[C@H](N)C(=O)O; NMeV = CN[C@H](C(=O)O)C(C)C; Sar = CNCC(=O)O

Test system: B16 melanoma ip, C57BL/6 mice, median survival T/C
Assay: NCI In Vivo Anticancer Drug Screen. Data for tumor model B16 Melanoma (intraperitoneal) in C57BL/6 mice
Conditions: endpoint: median survival time, higher = longer survival
Method: The antitumor activity of compounds was measured in mice bearing transplantable tumors. Survival or tumor size were measured and the results are expressed as the measurement made in the treated group (T) divided by the measurement made in the vehicle treated control group (C). The tumor model used in this assay is B16 Melanoma (intraperitoneal) in C57BL/6 mice

[1] = dose: 0.25 mg/kg/injection, schedule: Q01DX009 (ip), vehicle: saline
[2] = dose: 0.5 mg/kg/injection, schedule: Q01DX009 (ip), vehicle: saline
[3] = dose: 1.0 mg/kg/injection, schedule: Q01DX009 (ip), vehicle: saline
[4] = dose: 5.0 mg/kg/injection, schedule: Q01DX009 (ip), vehicle: saline
[5] = dose: 10.0 mg/kg/injection, schedule: Q01DX009 (ip), vehicle: saline
[6] = dose: 20.0 mg/kg/injection, schedule: Q01DX009 (ip), vehicle: saline
[7] = dose: 62.5 mg/kg/injection, schedule: Q01DX009 (ip), vehicle: saline
[8] = dose: 125.0 mg/kg/injection, schedule: Q01DX009 (ip), vehicle: saline
[9] = dose: 250.0 mg/kg/injection, schedule: Q01DX009 (ip), vehicle: saline
[10] = dose: 500.0 mg/kg/injection, schedule: Q01DX009 (ip), vehicle: saline
[11] = dose: 1.25 mg/kg/injection, schedule: Q01DX009 (ip), vehicle: saline
[12] = dose: 3.13 mg/kg/injection, schedule: Q01DX009 (ip), vehicle: saline
[13] = dose: 6.25 mg/kg/injection, schedule: Q01DX009 (ip), vehicle: saline
[14] = dose: 12.5 mg/kg/injection, schedule: Q01DX009 (ip), vehicle: saline
[15] = dose: 25.0 mg/kg/injection, schedule: Q01DX009 (ip), vehicle: saline
[16] = dose: 0.1 mg/kg/injection, schedule: Q01DX009 (ip), vehicle: saline
[17] = dose: 0.2 mg/kg/injection, schedule: Q01DX009 (ip), vehicle: saline

## COc1cc(NS(C)(=O)=O)ccc1Nc1c2ccccc2nc2ccccc12
dose: 0.5 mg/kg/injection, schedule: Q01DX009 (ip), vehicle: water
  T/C: 160 % of control
dose: 1.0 mg/kg/injection, schedule: Q01DX009 (ip), vehicle: Klucel (hydroxypropylcellulose) (HPC)
  T/C: 172 % of control
dose: 2.0 mg/kg/injection, schedule: Q01DX009 (ip), vehicle: Klucel (hydroxypropylcellulose) (HPC)
  T/C: 179 % of control
dose: 2.0 mg/kg/injection, schedule: Q01DX009 (ip), vehicle: water
  T/C: 222 % of control
dose: 4.0 mg/kg/injection, schedule: Q01DX009 (ip), vehicle: water
  T/C: 246 % of control

## CN1Cc2c(ccc3c2OCO3)[C@@H]2[C@H](O)Cc3cc4c(cc3[C@@H]21)OCO4
dose: 62.5 mg/kg/injection, schedule: Q01DX009 (ip), vehicle: saline with Tween-80
  T/C: 107 % of control
dose: 125.0 mg/kg/injection, schedule: Q01DX009 (ip), vehicle: saline with Tween-80
  T/C: 110 % of control
dose: 250.0 mg/kg/injection, schedule: Q01DX009 (ip), vehicle: saline with Tween-80
  T/C: 117 % of control

## CO[C@H](C(=O)[C@@H](O)[C@@H](C)O)[C@@H]1Cc2cc3cc(OC4CC(OC5CC(O)C(O)C(C)O5)C(O)C(C)O4)c(C)c(O)c3c(O)c2C(=O)[C@H]1OC1CC(OC2CC(OC3CC(C)(O)C(O)C(C)O3)C(O)C(C)O2)C(O)C(C)O1 (stereo partly drawn)
[1]
  T/C: 106 % of control
[2]
  T/C: 100 % of control
[3]
  T/C: 113 % of control

## O=c1[nH]cc(F)c(=O)[nH]1
[4]
  T/C: 113 % of control
[5]
  T/C: 120 % of control
[6]
  T/C: 123 % of control

## CN1C=c2c3c(ccc2=C2C=CC4C=C5OCOC5=CC4=C21)OCO3 (stereo not drawn)
dose: 1.0 mg/kg/injection, schedule: Q01DX009 (ip), vehicle: saline with Tween-80
  T/C: 103 % of control
dose: 2.0 mg/kg/injection, schedule: Q01DX009 (ip), vehicle: saline with Tween-80
  T/C: 92 % of control
dose: 4.0 mg/kg/injection, schedule: Q01DX009 (ip), vehicle: saline with Tween-80
  T/C: 96 % of control

## COc1cccc2c1C(=O)c1c(O)c3c(c(O)c1C2=O)C[C@@](O)(C(C)=O)C[C@@H]3OC1CC(N)C(O)C(C)O1 (stereo partly drawn)
[1]
  T/C: 177 % of control
[2]
  T/C: 188 % of control
[3]
  T/C: 277 % of control
dose: 2.0 mg/kg/injection, schedule: Q01DX009 (ip), vehicle: saline
  T/C: 186 % of control

## CC[C@]1(O)C[C@H]2CN(CCc3c([nH]c4ccccc34)[C@@](C(=O)OC)(c3cc4c(cc3OC)N(C=O)[C@H]3[C@@](O)(C(=O)OC)[C@H](OC(C)=O)[C@]5(CC)C=CCN6CC[C@]43[C@@H]65)C2)C1
dose: 0.06 mg/kg/injection, schedule: Q01DX009 (ip), vehicle: saline
  T/C: 182 % of control
dose: 0.13 mg/kg/injection, schedule: Q01DX009 (ip), vehicle: saline
  T/C: 189 % of control

## O=c1[nH]c(=O)n(C2CC(O)C(CO)O2)cc1F (stereo not drawn)
[5]
  T/C: 113 % of control
[6]
  T/C: 120 % of control
dose: 40.0 mg/kg/injection, schedule: Q01DX009 (ip), vehicle: saline
  T/C: 123 % of control
dose: 80.0 mg/kg/injection, schedule: Q01DX009 (ip), vehicle: saline
  T/C: 154 % of control
dose: 160.0 mg/kg/injection, schedule: Q01DX009 (ip), vehicle: saline
  T/C: 151 % of control

## O=C(N[C@H](CO)[C@H](O)c1ccc([N+](=O)[O-])cc1)C(Cl)Cl
[7]
  T/C: 106 % of control and 114 % of control
[8]
  T/C: 106 % of control and 107 % of control
[9]
  T/C: 106 % of control and 117 % of control
[10]
  T/C: 106 % of control and 107 % of control

## Nc1ncnc2c1ccn2C1OC(CO)C(O)C1O (stereo not drawn)
dose: 0.32 mg/kg/injection, schedule: Q01DX009 (ip), vehicle: saline
  T/C: 93 % of control
dose: 0.63 mg/kg/injection, schedule: Q01DX009 (ip), vehicle: saline
  T/C: 96 % of control
[11]
  T/C: 100 % of control

## COC(N)=O
[7]
  T/C: 100 % of control and 107 % of control
[8]
  T/C: 103 % of control and 106 % of control
[9]
  T/C: 100 % of control and 107 % of control
[10]
  T/C: 110 % of control

## N[C@@H](Cc1ccc(N(CCCl)CCCl)cc1)C(=O)O
dose: 1.5 mg/kg/injection, schedule: Q01DX009 (ip), vehicle: saline
  T/C: 170 % of control and 228 % of control
dose: 3.0 mg/kg/injection, schedule: Q01DX009 (ip), vehicle: saline
  T/C: 210 % of control
dose: 6.0 mg/kg/injection, schedule: Q01DX009 (ip), vehicle: saline
  T/C: 226 % of control
dose: 12.0 mg/kg/injection, schedule: Q01DX009 (ip), vehicle: saline
  T/C: 93 % of control

## N=[N+]=CC(=O)OCC(N)C(=O)O (stereo not drawn)
[12]
  T/C: 96 % of control
[13]
  T/C: 100 % of control
[14]
  T/C: 86 % of control
[15]
  T/C: 90 % of control

## CC1=C2C(=C[C@@](C)(CO)[C@@H]2O)C(=O)[C@](C)(O)C12CC2
[16]
  T/C: 113 % of control
[17]
  T/C: 113 % of control

## O=C(O)c1[nH]c(=O)[nH]c(=O)c1F
[11]
  T/C: 100 % of control
dose: 2.5 mg/kg/injection, schedule: Q01DX009 (ip), vehicle: saline
  T/C: 106 % of control and 110 % of control
[4]
  T/C: 100 % of control and 103 % of control
[5]
  T/C: 87 % of control and 89 % of control

## CN(C)CCCN1c2ccccc2Sc2ccc(Cl)cc21
[12]
  T/C: 100 % of control and 97 % of control
[13]
  T/C: 100 % of control and 102 % of control
[14]
  T/C: 111 % of control and 105 % of control
[15]
  T/C: 100 % of control and 108 % of control

## NC(Cc1ccc(N(CCCl)CCCl)cc1)C(=O)O (stereo not drawn)
dose: 4.0 mg/kg/injection, schedule: Q01DX009 (ip), vehicle: saline
  T/C: 200 % of control and 268 % of control and 350 % of control

## CCCCc1ccc(NC(=O)N(CCCl)N=O)cc1
[12]
  T/C: 200 % of control
[13]
  T/C: 210 % of control

## COc1cc(N(CCCl)CCCl)ccc1NC(=O)c1ccccc1
dose: 1.56 mg/kg/injection, schedule: Q01DX009 (ip), vehicle: saline
  T/C: 102 % of control
[12]
  T/C: 115 % of control
[13]
  T/C: 115 % of control

## NC(=O)Oc1cc(OC(N)=O)cc(N(CCCl)CCCl)c1
[14]
  T/C: 110 % of control
dose: 50.0 mg/kg/injection, schedule: Q01DX009 (ip), vehicle: saline
  T/C: 123 % of control

## Cc1nc(N)sc1CCCl
dose: 10.0 mg/kg/injection, schedule: Q01DX009 (ip), vehicle: saline sonified
  T/C: 100 % of control
dose: 20.0 mg/kg/injection, schedule: Q01DX009 (ip), vehicle: saline sonified
  T/C: 107 % of control
dose: 40.0 mg/kg/injection, schedule: Q01DX009 (ip), vehicle: saline sonified
  T/C: 103 % of control
dose: 80.0 mg/kg/injection, schedule: Q01DX009 (ip), vehicle: saline sonified
  T/C: 107 % of control

## CN(C)c1nc(N(C)C)nc(N(C)C)n1
dose: 37.5 mg/kg/injection, schedule: Q01DX009 (ip), vehicle: saline
  T/C: 100 % of control
dose: 75.0 mg/kg/injection, schedule: Q01DX009 (ip), vehicle: saline
  T/C: 103 % of control
dose: 150.0 mg/kg/injection, schedule: Q01DX009 (ip), vehicle: saline
  T/C: 103 % of control
dose: 300.0 mg/kg/injection, schedule: Q01DX009 (ip), vehicle: saline
  T/C: 103 % of control

## CC(CN1CC(=O)NC(=O)C1)N1CC(=O)NC(=O)C1 (stereo not drawn)
dose: 15.0 mg/kg/injection, schedule: Q01DX009 (ip), vehicle: saline
  T/C: 109 % of control
dose: 60.0 mg/kg/injection, schedule: Q01DX009 (ip), vehicle: saline
  T/C: 90 % of control

## Cc1c2oc3c(C)ccc(C(=O)N[C@@H]4C(=O)N[C@H](C(C)C)C(=O)N5CCC[C@H]5C(=O)N(C)CC(=O)N(C)[C@@H](C(C)C)C(=O)O[C@H]4C)c3nc-2c(C(=O)N[C@@H]2C(=O)N[C@H](C(C)C)C(=O)N3CCC[C@H]3C(=O)N(C)CC(=O)N(C)[C@@H](C(C)C)C(=O)O[C@H]2C)c(N)c1=O (I: [aThr][dV]P[Sar][NMeV] / II: [aThr][dV]P[Sar][NMeV]; ester I:1-I:C, II:1-II:C; linker I:N-II:N via Actinocin(9to1))
dose: 0.03 mg/kg/injection, schedule: Q01DX009 (ip), vehicle: saline
  T/C: 150 % of control and 165 % of control
dose: 0.05 mg/kg/injection, schedule: Q01DX009 (ip), vehicle: saline
  T/C: 156 % of control and 164 % of control and 193 % of control
[16]
  T/C: 203 % of control
[17]
  T/C: 117 % of control

## CC1CCC(NC(=O)N(CCCl)N=O)CC1 (stereo not drawn)
dose: 1.9 mg/kg/injection, schedule: Q01DX001 (ip), vehicle: saline
  T/C: 100 % of control
dose: 3.75 mg/kg/injection, schedule: Q01DX001 (ip), vehicle: saline
  T/C: 112 % of control
dose: 7.5 mg/kg/injection, schedule: Q01DX001 (ip), vehicle: saline
  T/C: 103 % of control
dose: 15.0 mg/kg/injection, schedule: Q01DX001 (ip), vehicle: saline
  T/C: 115 % of control
